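Protocol summary: plate cells (96-well), add compound at 5 concentrations, incubate 48 h, interpolate endpoints linearly. TGI: total growth inhibition.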
What was measured:
Test in all cases: inhibition of tumour cell growth, NCI panel, 48 h
TK-10 renal = test system: TK-10 renal
UACC-62 melanoma = test system: UACC-62 melanoma
A549 NSCLC = test system: A549 NSCLC
MOLT-4 leukemia = test system: MOLT-4 leukemia
RXF 393 renal = test system: RXF 393 renal
M14 melanoma = test system: M14 melanoma
MDA-N = test system: MDA-N
786-0 renal = test system: 786-0 renal
COLO 205 colon = test system: COLO 205 colon
SF-295 CNS = test system: SF-295 CNS
NCI-H522 lung = test system: NCI-H522 lung
NCI-H226 lung = test system: NCI-H226 lung
HS 578T breast = test system: HS 578T breast
SK-OV-3 ovarian = test system: SK-OV-3 ovarian
SF-268 CNS = test system: SF-268 CNS

Nc1cn(Cc2ccccc2)c2nc(/C=C3/C=CC=CC3=O)c(O)n12
TGI (TK-10 renal): > 100 µM | TGI (UACC-62 melanoma): > 100 µM | TGI (A549 NSCLC): > 100 µM | TGI (MOLT-4 leukemia): > 100 µM | TGI (RXF 393 renal): > 100 µM | TGI (M14 melanoma): > 100 µM | TGI (MDA-N): > 100 µM | TGI (786-0 renal): > 100 µM | TGI (COLO 205 colon): > 100 µM | TGI (SF-295 CNS): > 100 µM | TGI (NCI-H522 lung): > 100 µM | TGI (NCI-H226 lung): > 100 µM | TGI (HS 578T breast): > 100 µM | TGI (SK-OV-3 ovarian): > 100 µM | TGI (SF-268 CNS): > 100 µM

O=C(CCc1ccc(O)cc1)NCCc1cccc(OCc2ccccc2)c1
TGI (TK-10 renal): 79.5 µM | TGI (UACC-62 melanoma): 34 µM | TGI (A549 NSCLC): > 100 µM | TGI (MOLT-4 leukemia): 48.4 µM | TGI (RXF 393 renal): > 100 µM | TGI (M14 melanoma): 36.2 µM | TGI (MDA-N): 68.4 µM | TGI (786-0 renal): > 100 µM | TGI (COLO 205 colon): > 100 µM | TGI (SF-295 CNS): > 100 µM | TGI (NCI-H522 lung): 99.3 µM | TGI (NCI-H226 lung): 97.8 µM | TGI (HS 578T breast): > 100 µM | TGI (SK-OV-3 ovarian): > 100 µM | TGI (SF-268 CNS): > 100 µM

c1ccc(Nc2nnc(Cn3ccc4ccccc43)s2)cc1
TGI (TK-10 renal): > 100 µM | TGI (UACC-62 melanoma): > 100 µM | TGI (A549 NSCLC): > 100 µM | TGI (MOLT-4 leukemia): > 100 µM | TGI (RXF 393 renal): > 100 µM | TGI (M14 melanoma): > 100 µM | TGI (MDA-N): > 100 µM | TGI (786-0 renal): > 100 µM | TGI (COLO 205 colon): > 100 µM | TGI (SF-295 CNS): 80.9 µM | TGI (NCI-H522 lung): > 100 µM | TGI (NCI-H226 lung): > 100 µM | TGI (HS 578T breast): > 100 µM | TGI (SK-OV-3 ovarian): > 100 µM | TGI (SF-268 CNS): > 100 µM

COc1ccc2c(c1)N=C1CSC(c3cccc(Br)c3)N1C2 (stereo not given)
TGI (TK-10 renal): 41 µM | TGI (UACC-62 melanoma): 31.8 µM | TGI (A549 NSCLC): 48.1 µM | TGI (MOLT-4 leukemia): 31 µM | TGI (RXF 393 renal): 29.7 µM | TGI (M14 melanoma): 36.2 µM | TGI (MDA-N): 34.5 µM | TGI (786-0 renal): 35.1 µM | TGI (COLO 205 colon): 68.7 µM | TGI (SF-295 CNS): 40.8 µM | TGI (NCI-H522 lung): 39.1 µM | TGI (NCI-H226 lung): 43.5 µM | TGI (HS 578T breast): 96.7 µM | TGI (SK-OV-3 ovarian): 48 µM | TGI (SF-268 CNS): > 100 µM

NC(=O)C(c1ccccc1)N1OC2C(=O)N(c3cccc4ccccc34)C(=O)C2C1c1c2ccccc2c(Cl)c2ccccc12 (stereo not given)
TGI (TK-10 renal): 22.8 µM | TGI (UACC-62 melanoma): 13.8 µM | TGI (A549 NSCLC): > 50 µM | TGI (MOLT-4 leukemia): 9.03 µM | TGI (RXF 393 renal): 16.8 µM | TGI (M14 melanoma): 15.8 µM | TGI (MDA-N): 7.88 µM | TGI (786-0 renal): 21.4 µM | TGI (COLO 205 colon): 14.9 µM | TGI (SF-295 CNS): 23.9 µM | TGI (NCI-H522 lung): 44.3 µM | TGI (NCI-H226 lung): 13.5 µM | TGI (HS 578T breast): > 50 µM | TGI (SK-OV-3 ovarian): > 50 µM | TGI (SF-268 CNS): 25.1 µM

COc1cccc2c(Nc3ccc(S(=O)(=O)NC(C)=O)cc3)c3ccc([N+](=O)[O-])cc3nc12
TGI (TK-10 renal): > 56.7 µM | TGI (UACC-62 melanoma): > 58.3 µM | TGI (A549 NSCLC): > 100 µM | TGI (MOLT-4 leukemia): 80.5 µM | TGI (RXF 393 renal): > 100 µM | TGI (M14 melanoma): > 100 µM | TGI (MDA-N): > 100 µM | TGI (786-0 renal): > 100 µM | TGI (COLO 205 colon): > 95.7 µM | TGI (SF-295 CNS): > 100 µM | TGI (NCI-H522 lung): > 100 µM | TGI (NCI-H226 lung): > 64.7 µM | TGI (HS 578T breast): > 100 µM | TGI (SK-OV-3 ovarian): > 100 µM | TGI (SF-268 CNS): > 93.7 µM

O=C1c2ccccc2-c2ccc(N=Nc3c(O)ccc4ccccc34)cc21
TGI (TK-10 renal): > 100 µM | TGI (UACC-62 melanoma): > 100 µM | TGI (A549 NSCLC): > 100 µM | TGI (MOLT-4 leukemia): > 100 µM | TGI (RXF 393 renal): > 100 µM | TGI (M14 melanoma): > 100 µM | TGI (MDA-N): > 100 µM | TGI (786-0 renal): > 100 µM | TGI (COLO 205 colon): > 100 µM | TGI (SF-295 CNS): > 100 µM | TGI (NCI-H522 lung): > 100 µM | TGI (NCI-H226 lung): > 100 µM | TGI (HS 578T breast): > 100 µM | TGI (SK-OV-3 ovarian): > 100 µM | TGI (SF-268 CNS): > 100 µM

CCOP(=O)(OCC)c1ccc(=O)[nH]c1-c1cccs1
TGI (TK-10 renal): > 100 µM | TGI (UACC-62 melanoma): > 100 µM | TGI (A549 NSCLC): > 100 µM | TGI (MOLT-4 leukemia): > 100 µM | TGI (RXF 393 renal): > 100 µM | TGI (M14 melanoma): > 100 µM | TGI (MDA-N): > 100 µM | TGI (786-0 renal): > 100 µM | TGI (COLO 205 colon): > 100 µM | TGI (SF-295 CNS): > 100 µM | TGI (NCI-H522 lung): > 100 µM | TGI (NCI-H226 lung): > 100 µM | TGI (HS 578T breast): > 100 µM | TGI (SK-OV-3 ovarian): > 100 µM | TGI (SF-268 CNS): > 100 µM

CCOC(=O)C(NC(=O)CC(C)C)(Nc1ccc(S(=O)(=O)Nc2nc(C)cc(C)n2)cc1)C(F)(F)F (stereo not given)
TGI (TK-10 renal): > 100 µM | TGI (UACC-62 melanoma): > 100 µM | TGI (A549 NSCLC): > 100 µM | TGI (MOLT-4 leukemia): > 100 µM | TGI (RXF 393 renal): > 100 µM | TGI (M14 melanoma): > 100 µM | TGI (MDA-N): > 100 µM | TGI (786-0 renal): > 100 µM | TGI (COLO 205 colon): > 100 µM | TGI (SF-295 CNS): > 100 µM | TGI (NCI-H522 lung): > 100 µM | TGI (NCI-H226 lung): > 100 µM | TGI (HS 578T breast): > 100 µM | TGI (SK-OV-3 ovarian): > 100 µM | TGI (SF-268 CNS): > 100 µM

CC1(C)CCCCCCC2OC2CCCCCC(C)(C)C1=O (stereo not given)
TGI (TK-10 renal): > 100 µM | TGI (UACC-62 melanoma): > 100 µM | TGI (A549 NSCLC): > 100 µM | TGI (MOLT-4 leukemia): 61.2 µM | TGI (RXF 393 renal): 49.5 µM | TGI (M14 melanoma): > 100 µM | TGI (MDA-N): > 100 µM | TGI (786-0 renal): > 100 µM | TGI (COLO 205 colon): 29.5 µM | TGI (SF-295 CNS): > 67.3 µM | TGI (NCI-H522 lung): > 80.4 µM | TGI (NCI-H226 lung): > 94.4 µM | TGI (HS 578T breast): > 100 µM | TGI (SK-OV-3 ovarian): > 100 µM | TGI (SF-268 CNS): > 100 µM

COC1=C(N2CC2)C(=O)c2nc3n(c2C1=O)CCC3
TGI (TK-10 renal): 7.08 µM | TGI (UACC-62 melanoma): 3.12 µM | TGI (A549 NSCLC): 6.47 µM | TGI (MOLT-4 leukemia): 2.41 µM | TGI (RXF 393 renal): 0.261 µM | TGI (M14 melanoma): 0.619 µM | TGI (MDA-N): 2.89 µM | TGI (786-0 renal): 1.03 µM | TGI (COLO 205 colon): 2.13 µM | TGI (SF-295 CNS): 2.07 µM | TGI (NCI-H522 lung): 0.385 µM | TGI (NCI-H226 lung): 4.76 µM | TGI (HS 578T breast): 31.3 µM | TGI (SK-OV-3 ovarian): 3.04 µM | TGI (SF-268 CNS): 5.23 µM

Cn1c(NS(=O)(=O)c2ccccc2)nc2ccccc21
TGI (TK-10 renal): > 100 µM | TGI (UACC-62 melanoma): > 100 µM | TGI (A549 NSCLC): > 100 µM | TGI (MOLT-4 leukemia): > 100 µM | TGI (RXF 393 renal): > 100 µM | TGI (M14 melanoma): > 100 µM | TGI (MDA-N): > 100 µM | TGI (786-0 renal): > 100 µM | TGI (COLO 205 colon): > 100 µM | TGI (SF-295 CNS): > 100 µM | TGI (NCI-H522 lung): > 100 µM | TGI (NCI-H226 lung): > 100 µM | TGI (HS 578T breast): > 100 µM | TGI (SK-OV-3 ovarian): > 100 µM | TGI (SF-268 CNS): > 100 µM

COc1ccc(-c2c(CN3CCOCC3)sc3nc4ccccc4n23)cc1
TGI (TK-10 renal): > 100 µM | TGI (UACC-62 melanoma): > 100 µM | TGI (A549 NSCLC): > 86.1 µM | TGI (MOLT-4 leukemia): > 100 µM | TGI (RXF 393 renal): > 47.5 µM | TGI (M14 melanoma): > 100 µM | TGI (MDA-N): 5.38 µM | TGI (786-0 renal): > 76.8 µM | TGI (COLO 205 colon): 49.4 µM | TGI (SF-295 CNS): > 100 µM | TGI (NCI-H522 lung): > 20.2 µM | TGI (NCI-H226 lung): > 79.8 µM | TGI (HS 578T breast): > 69.7 µM | TGI (SK-OV-3 ovarian): 94.9 µM | TGI (SF-268 CNS): 98.2 µM

COc1ccc(C(c2c[nH]c3ccc(Br)cc23)c2c[nH]c3ccc(Br)cc23)cc1
TGI (TK-10 renal): 2.27 µM | TGI (UACC-62 melanoma): 0.689 µM | TGI (A549 NSCLC): 1.22 µM | TGI (MOLT-4 leukemia): 0.478 µM | TGI (RXF 393 renal): 0.578 µM | TGI (M14 melanoma): 0.7 µM | TGI (MDA-N): 0.552 µM | TGI (786-0 renal): 1.07 µM | TGI (COLO 205 colon): 0.347 µM | TGI (SF-295 CNS): 1.17 µM | TGI (NCI-H522 lung): 0.397 µM | TGI (NCI-H226 lung): 1.7 µM | TGI (HS 578T breast): 3.81 µM | TGI (SK-OV-3 ovarian): 2.58 µM | TGI (SF-268 CNS): 0.631 µM
